From paper PMC7144182, “Synthesis, biological evaluation and molecular modelling of 2,4-disubstituted-5-(6-alkylpyridin-2-yl)-1H-imidazoles as ALK5 inhibitors” (Journal of Enzyme Inhibition and Medicinal Chemistry, 2020)
Values joined by “and” are separate entries in the source; they are usually repeats but may differ in a detail not shown here. Identical values can stand only once.

Columns and labels:
[1] = target: T1, purified human ALK5 kinase domain (Homo sapiens, UniProt P36897); assay: ALK5 kinase assay (33PanQinase, casein as substrate); type: biochemical; conditions: for IC50: casein substrate, 1 μM ATP, singlicate (11e: mean of triplicates); for fold less potent than the corresponding 6-methylpyridyl analogue / fold more inhibiting than the respective methylene linker analogue: vs 11a; for fold less potent than the corresponding 6-methylpyridyl analogue: 11e, 16a, 16e respectively; for fold more inhibiting than the corresponding m-CONH2 analogues 16e and 16f: ethylene linker series; for fold more inhibiting than the respective methylene linker analogue: 11b, 11c, 11g respectively
T1 construct: using the purified human ALK5 kinase domain produced in Sf9 insect cells; host or cells: Sf9 insect cells
T1 sequence (P36897 205-495 limits assumed): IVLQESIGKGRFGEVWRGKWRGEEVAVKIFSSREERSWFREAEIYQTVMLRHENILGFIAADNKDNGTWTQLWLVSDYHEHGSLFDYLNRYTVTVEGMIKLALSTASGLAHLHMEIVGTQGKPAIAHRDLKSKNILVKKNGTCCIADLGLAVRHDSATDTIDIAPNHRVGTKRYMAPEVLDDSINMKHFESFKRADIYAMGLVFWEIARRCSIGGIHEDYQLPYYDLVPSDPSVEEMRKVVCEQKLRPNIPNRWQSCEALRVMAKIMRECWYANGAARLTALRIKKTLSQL
Procedure: To evaluate whether these potential inhibitors 7a–c, 11a–h, and 16a–h could inhibit ALK5, a kinase assay was performed using the purified human ALK5 kinase domain produced in Sf9 insect cells and casein as a substrate (Table 1).

[2] = system: TGF-β1-induced luciferase reporter activity, HaCaT (3TP-luc) stable cells; assay: Cell-based p3TP-luciferase reporter assay; conditions: for p3TP-luciferase activity (% control): 0.1 μM inhibitor, TGF-β1 2 ng/mL, 24 h, mean ± SD of three independent experiments; for % inhibition in luciferase reporter assay: 0.1 µM inhibitor
Procedure: To establish HaCaT (3TP-luc) stable cells, cells were seeded on six-well plates. Cells were allowed to adhere overnight and then transfected with the p3TP-luc (neo) expression plasmid using PEI reagent (Sigma Aldrich). Transfected cells were cultured for four weeks in the presence of G418 (500 µg/mL). Several single clones were isolated and measured luciferase activity. The clone showing response to TGF-β1 treatment was used for reporter assay. HaCaT (3TP-luc) stable cells were seeded at 2.5 × 10^4 cells/well in 96-well plate and were allowed to adhere overnight. Cells were concomitantly treated with TGF-β1 (2 ng/mL) and indicated concentrations of ALK5 inhibitors in 0.2% FBS medium and incubated for 24 h at 37 °C in 5% CO2. Cell lysates were prepared using Luciferase Assay System (Promega) according to the manufacturer’s instruction, and luminescence was measured by a luminometer, Micro Lumat Plus (Berthold, Germany).

Caco-2 cells = assay: Caco-2 cell permeability assay; type: in vitro ADME; conditions: 100 µM, AP to BL, 2 h; mean ± SD of quadruplicates
Procedure: Caco-2 cells were seeded in Transwell® polycarbonate filter at a density of 8 × 10^4 cells/filter and cultured for 21 days. Culture medium was removed from both apical (AP) and basolateral (BL) chambers of transwell, and the wells were rinsed three times with PBS. AP buffer (HBSS, pH 6.5) containing 10 mM MES and BL buffer (HBSS, pH 7.4) containing 10 mM HEPES were loaded in AP (500 µL) and BL (1500 µL) chambers, respectively, followed by incubation for 30 min at 37 °C. Then, test compound (100 µM) was added to the AP side and incubated for 2 h at 37 °C. After the incubation, BL buffer was collected and analysed using an UV spectrophotometer at a maximum wavelength (wavelength 225–357 nm).
To estimate oral absorption of target compounds, their permeability in a Caco-2 monolayer was evaluated at a concentration of 100 µM (Table 1).

| Compound | IC50 [1] [nM] | fold less potent than the corresponding 6-methylpyridyl analogue ([1]; kinase assay) | Caco-2 permeability (%) (Caco-2 cells) | fold more potent than the benzo[1,3]dioxol-5-yl analogue ([1]; 11a vs 7a, 16a vs 7b, kinase assay) [fold] | fold more inhibiting than the corresponding m-CONH2 analogues 16e and 16f [1] [fold] | fold more inhibiting than the respective methylene linker analogue [1] [fold] | p3TP-luciferase activity (% control) [2] [% control] | % inhibition in luciferase reporter assay [2] [% inhibition] |
| --- | --- | --- | --- | --- | --- | --- | --- | --- |
| CC(C)c1cccc(-c2[nH]c(Cc3cccc(C(N)=O)c3)nc2-c2ccc3nccnc3c2)n1 [Compound 11g, 3-((5-(6-Isopropylpyridin-2-yl)-4-(quinoxalin-6-yl)-1H-imidazol-2-yl)methyl)benzamide] | 1250 | 13–35 fold | 34 ± 15.6% | – | – | – | 69 ± 6.7 | – |
| CC(C)c1cccc(-c2[nH]c(CCc3ccc(C(N)=O)cc3)nc2-c2ccc3nccnc3c2)n1 [Compound 16c, 4-(2-(5-(6-Isopropylpyridin-2-yl)-4-(quinoxalin-6-yl)-1H-imidazol-2-yl)ethyl)benzamide] | 653 | 13–35 fold | 23 ± 3.1% | – | – | 3.4 | 85 ± 38.9 | – |
| CCCCc1cccc(-c2[nH]c(CCc3ccc(C(N)=O)cc3)nc2-c2ccc3nccnc3c2)n1 [Compound 16d, 4-(2-(5-(6-n-Butylpyridin-2-yl)-4-(quinoxalin-6-yl)-1H-imidazol-2-yl)ethyl)benzamide] | 2380 | – | 24 ± 1.9% | – | – | – | 76 ± 5.7 | – |
| CCc1cccc(-c2[nH]c(CCc3cccc(C(N)=O)c3)nc2-c2ccc3nccnc3c2)n1 [Compound 16f, 3-(2-(5-(6-Ethylpyridin-2-yl)-4-(quinoxalin-6-yl)-1H-imidazol-2-yl)ethyl)benzamide] | 66 | 1.4 fold | 6% and 6 ± 4.1% | – | – | – | 56 ± 14.6 | – |
| CC(C)c1cccc(-c2[nH]c(CCc3cccc(C(N)=O)c3)nc2-c2ccc3nccnc3c2)n1 [Compound 16g, 3-(2-(5-(6-Isopropylpyridin-2-yl)-4-(quinoxalin-6-yl)-1H-imidazol-2-yl)ethyl)benzamide] | 593 | 13–35 fold | 0% | – | – | 2.1 | 48 ± 41.8 | – |
| CCCCc1cccc(-c2[nH]c(CCc3cccc(C(N)=O)c3)nc2-c2ccc3nccnc3c2)n1 [Compound 16h, 3-(2-(5-(6-n-Butylpyridin-2-yl)-4-(quinoxalin-6-yl)-1H-imidazol-2-yl)ethyl)benzamide] | 2880 | – | 0% | – | – | – | 92 ± 10.4 | – |

Stronger by IC50 [1], values ahead:

| IC50 [1] [nM] | fold less potent than the corresponding 6-methylpyridyl analogue ([1]; kinase assay) | Caco-2 permeability (%) (Caco-2 cells) | fold more potent than the benzo[1,3]dioxol-5-yl analogue ([1]; 11a vs 7a, 16a vs 7b, kinase assay) [fold] | fold more inhibiting than the corresponding m-CONH2 analogues 16e and 16f [1] [fold] | fold more inhibiting than the respective methylene linker analogue [1] [fold] | Compound | p3TP-luciferase activity (% control) [2] [% control] | % inhibition in luciferase reporter assay [2] [% inhibition] |
| --- | --- | --- | --- | --- | --- | --- | --- | --- |
| 30 | – | 45 ± 5.3% | 3.1 | 1.6 | 2.9 | Cc1cccc(-c2[nH]c(CCc3ccc(C(N)=O)cc3)nc2-c2ccc3nccnc3c2)n1 [Compound 16a, 4-(2-(5-(6-Methylpyridin-2-yl)-4-(quinoxalin-6-yl)-1H-imidazol-2-yl)ethyl)benzamide] | 15 ± 8.2 | 85 |
| 41 | 1.4 fold | 25 ± 3.7% | – | 1.6 | 2.7 | CCc1cccc(-c2[nH]c(CCc3ccc(C(N)=O)cc3)nc2-c2ccc3nccnc3c2)n1 [Compound 16b, 4-(2-(5-(6-Ethylpyridin-2-yl)-4-(quinoxalin-6-yl)-1H-imidazol-2-yl)ethyl)benzamide] | 16 ± 8.4 | 84 |
| 47 | – | 21 ± 9.5% | – | – | – | Cc1cccc(-c2[nH]c(CCc3cccc(C(N)=O)c3)nc2-c2ccc3nccnc3c2)n1 [Compound 16e, 3-(2-(5-(6-Methylpyridin-2-yl)-4-(quinoxalin-6-yl)-1H-imidazol-2-yl)ethyl)benzamide] | 7 ± 0.7 | 93 |
